The assay deals with IgE-Tb binding to soluble IgE receptor FcεR1α (Y131A mutation) (Homo sapiens, UniProt P01854, N146Q/N252Q). Put plainly: In vitro FRET assay: inhibition of binding of IgE-Tb to receptor FcεR1α-Y131A-AF488. The conditions noted are these: read-out: FRET IC50 range.

Structures are written as SMILES.

One may read the IC50 as the concentration at which inhibition is half-maximal.

Chain of IgE-Tb binding to soluble IgE receptor FcεR1α (Y131A mutation) (P01854 whole entry N146Q/N252Q, looked up): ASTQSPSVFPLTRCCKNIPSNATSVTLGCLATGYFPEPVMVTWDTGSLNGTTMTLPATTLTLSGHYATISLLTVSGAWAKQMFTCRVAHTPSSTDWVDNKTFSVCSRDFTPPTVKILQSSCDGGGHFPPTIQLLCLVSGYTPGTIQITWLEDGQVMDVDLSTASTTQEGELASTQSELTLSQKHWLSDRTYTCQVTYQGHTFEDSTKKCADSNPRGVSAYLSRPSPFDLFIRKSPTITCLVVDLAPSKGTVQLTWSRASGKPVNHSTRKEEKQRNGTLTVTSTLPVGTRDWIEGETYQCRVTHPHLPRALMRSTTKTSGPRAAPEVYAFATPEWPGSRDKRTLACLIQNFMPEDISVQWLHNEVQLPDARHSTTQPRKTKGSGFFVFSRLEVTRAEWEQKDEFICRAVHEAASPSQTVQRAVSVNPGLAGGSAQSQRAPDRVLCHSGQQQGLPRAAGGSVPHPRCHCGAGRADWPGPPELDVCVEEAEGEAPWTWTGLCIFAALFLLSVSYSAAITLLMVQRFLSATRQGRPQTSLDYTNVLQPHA

Take `COc1cncc(NC2CCc3cc(S(=O)(=O)NCC(C)(C)F)c4cc(C5CC5)ncc4c32)c1` (stereo not drawn) [Example 30, 3-cyclopropyl-N-(2-fluoro-2-methylpropyl)-9-[(5-methoxypyridin-3-yl)amino]-8,9-dihydro-7H-cyclopenta[h]isoquinoline-5-sulfonamide]: the IC50 was in the range of 10 to 50 nM.

`CC(C)(F)CNS(=O)(=O)c1cc2c(c3cnc(C4CC4)cc13)C(Oc1cccnc1)CC2` (stereo not drawn) [Example 93, 3-cyclopropyl-N-(2-fluoro-2-methylpropyl)-9-pyridin-3-yloxy-8,9-dihydro-7H-cyclopenta[h]isoquinoline-5-sulfonamide]: the IC50 was in the range of 100 to 2000 nM.

With `CCNC(=O)N[C@@H]1CCc2c1cc(S(=O)(=O)NCC(C)C)c1cc(C3CC3)ncc21` (stereo in doubt) [Example 85, 1-ethyl-3-[(7R*)-3-cyclopropyl-5-(2-methylpropylsulfamoyl-8,9-dihydro-7H-cyclopenta[h]isoquinolin-7-yl]urea], the IC50 lay in the range of 10 to 50 nM.

Regarding `Cc1cc(C(=O)NC2CN(C3CCc4c3cc(S(=O)(=O)NCC(C)(C)F)c3cc(C5CC5)ncc43)C2)n(C)n1` (stereo not drawn) [Example 59, N-[1-[3-cyclopropyl-5-[(2-fluoro-2-methylpropyl)sulfamoyl]-8,9-dihydro-7H-cyclopenta[h]isoquinolin-7-yl]azetidin-3-yl]-2,5-dimethylpyrazole-3-carboxamide], the IC50 fell in the range of 100 to 2000 nM.

As to `CC(C)CNS(=O)(=O)c1cc2c(c3cnc(C4CC4)cc13)CCC2n1cnnc1Nc1cccnc1` (stereo not drawn) [Example 91, 3-cyclopropyl-N-(2-methylpropyl)-7-[3-(pyridin-3-ylamino)-1,2,4-triazol-4-yl]-8,9-dihydro-7H-cyclopenta[h]isoquinoline-5-sulfonamide], the concentration for half-maximal inhibition (IC50) is 10 to 50 nM.

Take `CC(C)CNS(=O)(=O)c1cc2c(c3cnc(C4CC4)cc13)C(NC(=O)Nc1ccc(Br)cc1)CC2` (stereo not drawn) [Example 45, 1-(4-bromophenyl)-3-[3-cyclopropyl-5-(2-methylpropylsulfamoyl)-8,9-dihydro-7H-cyclopenta[h]isoquinolin-9-yl]urea]: the concentration for half-maximal inhibition (IC50) fell in the range of 100 to 2000 nM.

Take `Cc1cc(-n2cnnc2NC2CCc3c2cc(S(=O)(=O)NCC(C)(C)F)c2cc(C4CC4)nnc32)n(C)n1` (stereo not drawn) [Example 24, 3-cyclopropyl-7-[[4-(2,5-dimethylpyrazol-3-yl)-1,2,4-triazol-3-yl]amino]-N-(2-fluoro-2-methylpropyl)-8,9-dihydro-7H-cyclopenta[h]cinnoline-5-sulfonamide]: the IC50 was 10 to 50 nM.

Turning to `Cn1nnc(-c2ccc(NC3CCc4c3cc(S(=O)(=O)NCC(C)(C)F)c3cc(C5CC5)ncc43)cn2)n1` (stereo not drawn) [Example 40, 3-cyclopropyl-N-(2-fluoro-2-methylpropyl)-7-[[6-(2-methyltetrazol-5-yl)pyridin-3-yl]amino]-8,9-dihydro-7H-cyclopenta[h]isoquinoline-5-sulfonamide], the IC50 lay in the range of 1 to 10 nM.

In the case of `CC(C)(F)CNS(=O)(=O)c1cc2c(c3cnc(C4CC4)cc13)CC[C@H]2n1ccnc1NCC1CC1` (single isomer, unassigned) [Example 12, (7R*)-3-cyclopropyl-7-[2-(cyclopropylmethylamino)imidazol-1-yl]-N-(2-fluoro-2-methylpropyl)-8,9-dihydro-7H-cyclopenta[h]isoquinoline-5-sulfonamide], the IC50 lay in the range of 100 to 2000 nM.

`CCNc1c(N[C@@H]2CCc3cc(S(=O)(=O)NCC(C)C)c4cc(C5CC5)ncc4c32)c(=O)c1=O` (single isomer, unassigned) [Example 79, (9R*)-3-cyclopropyl-9-[[2-(ethylamino)-3,4-dioxocyclobuten-1-yl]amino]-N-(2-methylpropyl)-8,9-dihydro-7H-cyclopenta[h]isoquinoline-5-sulfonamide]: the IC50 is 10 to 50 nM.

As to `[2H]C([2H])(NS(=O)(=O)c1cc2c(c3cnc(C4CC4)cc13)CCC2N)C(C)C` (stereo not drawn) [Example 34, 7-amino-3-cyclopropyl-N-(1,1-dideuterio-2-methylpropyl)-8,9-dihydro-7H-cyclopenta[h]isoquinoline-5-sulfonamide], the IC50 lay within 100 to 2000 nM.

On to `CC(C)CNS(=O)(=O)c1cc2c(c3cnc(C4CC4)cc13)C(O)CC2` (stereo not drawn) [Example 62, 3-cyclopropyl-9-hydroxy-N-(2-methylpropyl)-8,9-dihydro-7H-cyclopenta[h]isoquinoline-5-sulfonamide], for which the IC50 is 100 to 2000 nM.

As for `CC(C)CNS(=O)(=O)c1cc2c(c3cnc(C4CC4)cc13)C(=O)CC2` [Example 63, 3-cyclopropyl-N-(2-methylpropyl)-9-oxo-7,8-dihydrocyclopenta[h]isoquinoline-5-sulfonamide], the IC50 is 100 to 2000 nM.

On to `[2H]C([2H])(NS(=O)(=O)c1cc2c(c3cnc(C4CC4)cc13)CCC2NC(=O)OC(C)(C)C)C(C)C` (stereo not drawn) [Example 33, tert-butyl N-[3-cyclopropyl-5-[(1,1-dideuterio-2-methylpropyl)sulfamoyl]-8,9-dihydro-7H-cyclopenta[h]isoquinolin-7-yl]carbamate], for which the IC50 is 100 to 2000 nM.

On to `CC(C)CNS(=O)(=O)c1cc2c(c3cnc(C4CC4)cc13)[C@@H](Nc1nc3ccccc3[nH]1)CC2` (single isomer, unassigned) [Example 80, (9R*)-9-(1H-benzimidazol-2-ylamino)-3-cyclopropyl-N-(2-methylpropyl)-8,9-dihydro-7H-cyclopenta[h]isoquinoline-5-sulfonamide], for which the IC50 was 10 to 50 nM.

Turning to `CC(C)(F)CNS(=O)(=O)c1cc2c(c3cnc(C4CC4)cc13)CCC2n1nccc1NC(=O)C1CC1` (stereo not drawn) [Example 38, N-[2-[3-cyclopropyl-5-[(2-fluoro-2-methylpropyl)sulfamoyl]-8,9-dihydro-7H-cyclopenta[h]isoquinolin-7-yl]pyrazol-3-yl]cyclopropanecarboxamide], the IC50 lay within 100 to 2000 nM.

For the compound `CC(C)(F)CNS(=O)(=O)c1cc2c(c3cnc(C4CC4)cc13)CCC2Oc1cccnc1` (stereo not drawn) [Example 94, 3-cyclopropyl-N-(2-fluoro-2-methylpropyl)-7-pyridin-3-yloxy-8,9-dihydro-7H-cyclopenta[h]isoquinoline-5-sulfonamide], the IC50 was in the range of 100 to 2000 nM.

Take `CC(C)CNS(=O)(=O)c1cc2c(c3cnc(C4CC4)cc13)CCC2Nc1nc2ccccc2[nH]1` (stereo not drawn) [Example 92, 7-(1H-benzimidazol-2-ylamino)-3-cyclopropyl-N-(2-methylpropyl)-8,9-dihydro-7H-cyclopenta[h]isoquinoline-5-sulfonamide]: the IC50 was 10 to 50 nM.

Take `CC(C)CNS(=O)(=O)c1cc2c(c3cnc(C4CC4)cc13)CCC2N` (stereo not drawn) [Example 50, 7-amino-3-cyclopropyl-N-(2-methylpropyl)-8,9-dihydro-7H-cyclopenta[h]isoquinoline-5-sulfonamide]: the IC50 was in the range of 100 to 2000 nM.

With `CC(C)CNS(=O)(=O)c1cc2c(c3cnc(C4CC4)cc13)C(NCc1cccnc1)CC2` (stereo not drawn) [Example 14, 3-cyclopropyl-N-(2-methylpropyl)-9-(pyridin-3-ylmethylamino)-8,9-dihydro-7H-cyclopenta[h]isoquinoline-5-sulfonamide], the IC50 is 100 to 2000 nM.

As to `CC(C)CNS(=O)(=O)c1cc2c(c3cnc(C4CC4)cc13)C(n1cnnc1Nc1cncc(F)c1)CC2` (stereo not drawn) [Example 6, 3-cyclopropyl-9-[3-[(5-fluoro-3-pyridyl)amino]-1,2,4-triazol-4-yl]-N-isobutyl-8,9-dihydro-7H-cyclopenta[h]isoquinoline-5-sulfonamide], the IC50 lay within 100 to 2000 nM.

The record behind these values is patent publication US20240092773A1, “DIHYDRO-CYCLOPENTA-ISOQUINOLINE SULFONAMIDES DERIVATIVES” (UCB Biopharma SRL, priority 2019, published 2024).
